Measurements published in patent US20120101100A1 (priority 2008, published 2012).
Converted amounts (≈) assume the structure as drawn.

The molecules below were run against S. aureus GyrB ATPase (Staphylococcus aureus, UniProt P0A0K8) (assay: S. aureus (SAU) GyrB ATPase inhibition, malachite green phosphate detection (E. coli GyrA + S. aureus GyrB)). Conditions: 10 compound concentrations; 500 μM ATP.
Type: biochemical
How it was run: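 Phosphate from ATP hydrolysis (500 μM ATP) read as malachite green/molybdate absorbance at 650 nm after acid quench. Reaction: 1.25 nM S. aureus GyrB plus 1.25 nM E. coli GyrA, sheared DNA, Hepes pH 7.5 with Mg2+. IC50 fitted over 10 concentrations, normalised to DMSO (2%) and novobiocin (2 μM) controls.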

Sequence of S. aureus GyrB ATPase (P0A0K8 whole entry): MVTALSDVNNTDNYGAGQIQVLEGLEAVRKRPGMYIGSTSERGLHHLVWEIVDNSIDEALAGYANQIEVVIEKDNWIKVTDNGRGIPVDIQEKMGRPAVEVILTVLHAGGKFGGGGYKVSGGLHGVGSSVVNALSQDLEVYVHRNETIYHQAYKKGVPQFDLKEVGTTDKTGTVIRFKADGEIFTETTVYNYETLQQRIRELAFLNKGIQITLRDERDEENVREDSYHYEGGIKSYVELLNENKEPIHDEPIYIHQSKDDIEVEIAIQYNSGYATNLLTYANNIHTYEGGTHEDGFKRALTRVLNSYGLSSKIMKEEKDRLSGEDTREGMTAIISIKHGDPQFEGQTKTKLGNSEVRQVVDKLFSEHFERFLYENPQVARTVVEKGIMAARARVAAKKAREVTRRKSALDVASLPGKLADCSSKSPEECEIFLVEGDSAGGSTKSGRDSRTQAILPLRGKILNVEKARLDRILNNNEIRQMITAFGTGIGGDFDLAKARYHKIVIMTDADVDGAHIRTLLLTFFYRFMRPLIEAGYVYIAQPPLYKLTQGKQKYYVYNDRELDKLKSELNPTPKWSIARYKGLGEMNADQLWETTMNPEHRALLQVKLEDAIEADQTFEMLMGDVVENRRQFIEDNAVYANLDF
Sequence of S. aureus GyrB ATPase (P0AES4 whole entry, further chain): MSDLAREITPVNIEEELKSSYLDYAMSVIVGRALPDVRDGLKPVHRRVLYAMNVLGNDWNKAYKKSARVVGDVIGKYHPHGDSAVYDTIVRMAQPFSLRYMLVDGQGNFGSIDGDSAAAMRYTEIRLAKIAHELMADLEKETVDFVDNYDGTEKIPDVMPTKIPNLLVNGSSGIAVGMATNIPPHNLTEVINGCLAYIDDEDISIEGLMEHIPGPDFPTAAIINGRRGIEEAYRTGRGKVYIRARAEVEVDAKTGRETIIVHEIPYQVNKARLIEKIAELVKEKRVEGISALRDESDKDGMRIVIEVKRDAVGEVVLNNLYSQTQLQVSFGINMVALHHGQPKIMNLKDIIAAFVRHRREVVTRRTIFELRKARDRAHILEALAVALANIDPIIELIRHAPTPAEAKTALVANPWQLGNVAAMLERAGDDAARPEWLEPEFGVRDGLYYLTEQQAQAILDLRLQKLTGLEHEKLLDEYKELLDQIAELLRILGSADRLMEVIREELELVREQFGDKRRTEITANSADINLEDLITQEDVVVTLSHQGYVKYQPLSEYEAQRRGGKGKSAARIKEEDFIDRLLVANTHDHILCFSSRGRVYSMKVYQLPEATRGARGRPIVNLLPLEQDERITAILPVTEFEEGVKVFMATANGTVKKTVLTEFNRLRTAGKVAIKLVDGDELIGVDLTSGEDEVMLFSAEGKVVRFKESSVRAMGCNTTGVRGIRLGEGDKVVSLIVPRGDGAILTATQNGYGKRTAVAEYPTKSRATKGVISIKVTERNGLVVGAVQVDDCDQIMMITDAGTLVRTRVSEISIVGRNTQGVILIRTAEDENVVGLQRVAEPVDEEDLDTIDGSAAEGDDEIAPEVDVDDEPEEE

Row | Compound | IC50 [nM]
1 | CCNC(=O)Nc1cc(-c2nc(C(F)(F)F)cs2)c(-c2cccnc2)cn1 [Example 14, 1-Ethyl-3-(4-(4-(trifluoromethyl)thiazol-2-yl)-3,3′-bipyridin-6-yl)urea] | 10
2 | CCNC(=O)Nc1cc(-c2nc(C(F)(F)F)cs2)c(-c2cccc(C#N)n2)cn1 [Example 32, 1-(6-cyano-4′-(4-(trifluoromethyl)thiazol-2-yl)-2,3′-bipyridin-6′-yl)-3-ethylurea] | 62

Same assay, conditions: compound concentration of 1.0 μM unless otherwise noted; average value where assay was carried out more than once; read-out: S. aureus (SAU) GyrB ATPase % Inhibition

Row | Compound | inhibition at 1 µM [%]
3 | CCNC(=O)Nc1cc(-c2nc(C(F)(F)F)cs2)c(-c2cccnc2)cn1 [Example 14, 1-Ethyl-3-(4-(4-(trifluoromethyl)thiazol-2-yl)-3,3′-bipyridin-6-yl)urea] | 86
4 | CCNC(=O)Nc1cc(-c2nc(C(F)(F)F)cs2)c(-c2cncc(-c3nnc(C(C)O)o3)c2)cn1 (centres unmarked) [Example 275, 1-ethyl-3-(5′-(5-(1-hydroxyethyl)-1,3,4-oxadiazol-2-yl)-4-(4-(trifluoromethyl)thiazol-2-yl)-3,3′-bipyridin-6-yl)urea] | 98
5 | CCNC(=O)Nc1cc(-c2nc(-c3ccccc3)cs2)c(-c2nc(-c3ncnn3C)c(-c3nnc(C)o3)s2)cn1 [Example 97, 1-ethyl-3-(5-(5-(5-methyl-1,3,4-oxadiazol-2-yl)-4-(1-methyl-1H-1,2,4-triazol-5-yl)thiazol-2-yl)-4-(4-phenylthiazol-2-yl)pyridin-2-yl)urea] | 99
6 | CCNC(=O)Nc1cc(-c2nc(C(F)(F)F)cs2)c(-c2cc(OCC)nc(-c3nnc(C)o3)c2)cn1 [Example 76, 1-(2′-ethoxy-6′-(5-methyl-1,3,4-oxadiazol-2-yl)-4-(4-(trifluoromethyl)thiazol-2-yl)-3,4′-bipyridin-6-yl)-3-ethylurea] | 100
7 | CCNC(=O)Nc1cc(-c2nc(C(F)(F)F)cs2)c(-c2cccc(C#N)n2)cn1 [Example 32, 1-(6-cyano-4′-(4-(trifluoromethyl)thiazol-2-yl)-2,3′-bipyridin-6′-yl)-3-ethylurea] | 106
8 | CCNC(=O)Nc1cc(-c2nc(C(F)(F)F)cs2)c(-c2ccnc(-c3nnc([C@H]4COCCN4)o3)c2)cn1 [Example 243, (R)-1-ethyl-3-(2′-(5-(morpholin-3-yl)-1,3,4-oxadiazol-2-yl)-4-(4-(trifluoromethyl)thiazol-2-yl)-3,4′-bipyridin-6-yl)urea] | 122
9 | CCNC(=O)Nc1cc(-c2nc(C(F)(F)F)c(CNC3CCCCC3)s2)c(-c2cncc(-c3nnc(C)o3)c2)cn1 [Example 56, 1-(4-(5-((cyclohexylamino)methyl)-4-(trifluoromethyl)thiazol-2-yl)-5′-(5-methyl-1,3,4-oxadiazol-2-yl)-3,3′-bipyridin-6-yl)-3-ethylurea] | 96
10 | CCNC(=O)Nc1cc(-c2nnc(-c3ccccc3)o2)c(-c2cncc(-c3n[nH]c(=O)o3)c2)cn1 [Example 196] | 118
11 | CCNC(=O)Nc1cc(-c2nc(C(F)(F)F)c(C(=O)NC3CCCC3)s2)c(-c2cncc(-c3nnc(C)o3)c2)cn1 [Example 68, N-cyclopentyl-2-(6-(3-ethylureido)-5′-(5-methyl-1,3,4-oxadiazol-2-yl)-3,3′-bipyridin-4-yl)-4-(trifluoromethyl)thiazole-5-carboxamide] | 96
12 | CCNC(=O)Nc1cc(-c2nc(-c3ccccc3)cs2)c(-c2cc(-c3n[nH]c(=O)o3)nc(N3CCOCC3)c2)cn1 [Example 88] | 94
13 | CCNC(=O)Nc1cc(-c2nc(C(F)(F)F)cs2)c(-c2cc(-c3n[nH]c(=O)o3)cnc2OCC2CCOCC2)cn1 [Example 112, 1-Ethyl-3-{5′-(5-oxo-4,5-dihydro-1,3,4-oxadiazol-2-yl)-2′-(tetrahydro-2H-pyran-4-ylmethoxy)-4-[4-(trifluoromethyl)-1,3-thiazol-2-yl]-3,3′-bipyridin-6-yl}urea] | 95
14 | CCNC(=O)Nc1cc(-c2nc(C(F)(F)F)cs2)c(-c2cncc(-c3nnn[nH]3)c2)cn1 [Example 3, 1-(5′-(2H-tetrazol-5-yl)-4-(4-(trifluoromethyl)thiazol-2-yl)-3,3′-bipyridin-6-yl)-3-ethylurea] | 88
15 | CCNC(=O)Nc1cc(-c2nc(-c3cccc(OC)n3)cs2)c(-c2cncc(-c3n[nH]c(=O)o3)c2)cn1 [Example 202] | 43
16 | CCNC(=O)Nc1cc(N2CC(C)OC(C)C2)c(-c2cncc(-c3n[nH]c(=O)o3)c2)cn1 (centres unmarked) [Example 149] | 94
17 | CCNC(=O)Nc1cc(-c2nc(C(F)(F)F)cs2)c(-c2c[nH]c(=O)c(-c3nnc(C)o3)c2)cn1 [Example 261, 1-ethyl-3-(5-(5-(5-methyl-1,3,4-oxadiazol-2-yl)-6-oxo-1,6-dihydropyridin-3-yl)-4-(4-(trifluoromethyl)thiazol-2-yl)pyridin-2-yl)urea] | 96
18 | CCNC(=O)Nc1cc(-c2nc(C(F)(F)F)c(C(=O)NCCOC)s2)c(-c2cncc(-c3n[nH]c(=O)o3)c2)cn1 [Example 59, 2-(6-(3-ethylureido)-5′-(5-oxo-4,5-dihydro-1,3,4-oxadiazol-2-yl)-3,3′-bipyridin-4-yl)-N-(2-methoxyethyl)-4-(trifluoromethyl)thiazole-5-carboxamide] | 98

Row | Compound | inhibition at 1 µM [%]
19 | CCNC(=O)Nc1cc(-c2nc(C(F)(F)F)cs2)c(-c2cc(-c3nnc(C)o3)cnc2OCC2CCOCC2)cn1 [Example 113, 1-Ethyl-3-{5′-(5-methyl-1,3,4-oxadiazol-2-yl)-2′-(tetrahydro-2H-pyran-4-ylmethoxy)-4-[4-(trifluoromethyl)-1,3-thiazol-2-yl]-3,3′-bipyridin-6-yl}urea] | 45
20 | CCNC(=O)Nc1cc(-c2nc(C(F)(F)F)cs2)c(-c2cc(-c3n[nH]c(=O)o3)cnc2OC)cn1 [Example 101, 1-Ethyl-3-(2′-methoxy-5′-(5-oxo-4,5-dihydro-1,3,4-oxadiazol-2-yl)-4-(4-(trifluoromethyl)thiazol-2-yl)-3,3′-bipyridin-6-yl)urea] | 97
21 | CCNC(=O)Nc1cc(-c2nc(C(F)(F)F)cs2)c(-c2cncc(-c3c(C)noc3C)c2)cn1 [Example 133] | 104
22 | CCNC(=O)Nc1cc(-c2nc(-c3ccccc3)cs2)c(-c2ccnc(-c3nnc(C)o3)c2)cn1 [Example 96, 1-ethyl-3-(2′-(5-methyl-1,3,4-oxadiazol-2-yl)-4-(4-phenylthiazol-2-yl)-3,4′-bipyridin-6-yl)urea] | 100
23 | CCNC(=O)Nc1cc(-c2nc(C(F)(F)F)cs2)c(-c2cc(-c3nnc(C)o3)cnc2OCCN(CC)CC)cn1 [Example 115, 1-(2′-(2-(diethylamino)ethoxy)-5′-(5-methyl-1,3,4-oxadiazol-2-yl)-4-(4-(trifluoromethyl)thiazol-2-yl)-3,3′-bipyridin-6-yl)-3-ethylurea] | 96
24 | CCNC(=O)Nc1cc(-c2nc(C(F)(F)F)cs2)c(-c2cncc(-c3nn(C(=O)N(C)C)c(=O)o3)c2)cn1 [Example 158, 5-(6′-(3-Ethylureido)-4′-(4-(trifluoromethyl)thiazol-2-yl)-3,3′-bipyridin-5-yl)-N,N-dimethyl-2-oxo-1,3,4-oxadiazole-3(2H)-carboxamide] | 97
25 | CCNC(=O)Nc1cc(-c2nc(-c3ccccn3)cs2)c(-c2cncc(S(C)(=O)=O)c2)cn1 [Example 129] | 102
26 | CCN(CC)C(=O)Nc1cc(-c2nc(C(F)(F)F)cs2)c(-c2cncc(-c3n[nH]c(=O)o3)c2)cn1 [Example 47, 1,1-diethyl-3-(5′-(5-oxo-4,5-dihydro-1,3,4-oxadiazol-2-yl)-4-(4-(trifluoromethyl)thiazol-2-yl)-3,3′-bipyridin-6-yl)urea] | 72
27 | CCNC(=O)Nc1cc(-c2nc(-c3ccc(OC)nc3)cs2)c(-c2cncc(-c3n[nH]c(=O)o3)c2)cn1 [Example 203] | 104
28 | CCNC(=O)Nc1cc(-c2nc(C(F)(F)F)cs2)c(-c2ccc(F)nc2)cn1 [Example 127] | 100
29 | CCNC(=O)Nc1cc(-c2nc(C(F)(F)F)cs2)c(-c2nc3c(=O)[nH][nH]c(=O)c3s2)cn1 [Example 16, 1-{5-(4,7-dioxo-4,5,6,7-tetrahydro[1,3]thiazolo[4,5-d]pyridazin-2-yl)-4-[4-(trifluoromethyl)-1,3-thiazol-2-yl]pyridin-2-yl}-3-ethylurea] | 115
30 | CCNC(=O)Nc1cc(-c2nc(C(F)(F)F)c(C(=O)NCCN3CCN(C)CC3)s2)c(-c2cncc(-c3nnc(C)o3)c2)cn1 [Example 64, 2-(6-(3-ethylureido)-5′-(5-methyl-1,3,4-oxadiazol-2-yl)-3,3′-bipyridin-4-yl)-N-(2-(4-methylpiperazin-1-yl)ethyl)-4-(trifluoromethyl)thiazole-5-carboxamide] | 98
31 | CCNC(=O)Nc1cc(-c2nc(C(F)(F)F)cs2)c(-c2cncc(-c3nnc(NCCOC)o3)c2)cn1 [Example 153] | 100
32 | CCNC(=O)Nc1cc(-c2nc(-c3cccnc3F)cs2)c(-c2cncc(-c3n[nH]c(=O)o3)c2)cn1 [Example 204] | 101
33 | CCNC(=O)Nc1cc(-c2nc(C(F)(F)F)cs2)c(-c2cc(-c3nnc(C)o3)cnc2CC)cn1 [Example 73, 1-ethyl-3-(2′-ethyl-5′-(5-methyl-1,3,4-oxadiazol-2-yl)-4-(4-(trifluoromethyl)thiazol-2-yl)-3,3′-bipyridin-6-yl)urea] | 97

Same assay, conditions: read-out: S. aureus (SAU) GyrB ATPase % Inhibition

Row | Compound | inhibition at 1 µM [%]
34 | CCNC(=O)Nc1cc(-c2nc(C(F)(F)F)cs2)c(-c2cncc(-c3noc(=O)[nH]3)c2)cn1 [Example 19, 1-Ethyl-3-(5′-(5-oxo-4,5-dihydro-1,2,4-oxadiazol-3-yl)-4-(4-(trifluoromethyl)thiazol-2-yl)-3,3′-bipyridin-6-yl)urea] | 110

The molecules below were run on Streptococcus pneumoniae (assay: Bacterial susceptibility testing in liquid media (MIC)). Conditions: against Streptococcus pneumoniae; lowest concentration reducing growth by 80% or more; 37° C., 24 hrs.
Type: cell-based
Method: Compounds were tested for antimicrobial activity by susceptibility testing in liquid media. Compounds were dissolved in dimethylsulfoxide and tested in 10 doubling dilutions in the susceptibility assays. The organisms used in the assay were grown overnight on suitable agar media and then suspended in a liquid medium appropriate for the growth of the organism. The suspension was a 0.5 McFarland and a further 1 in 10 dilution was made into the same liquid medium to prepare the final organism suspension in 100 μL. Plates were incubated under appropriate conditions at 37° C. for 24 hrs prior to reading. The Minimum Inhibitory Concentration was determined as the lowest drug concentration able to reduce growth by 80% or more.

Row | Compound | MIC [µM]
35 | CCNC(=O)Nc1cc(-c2nc(C(F)(F)F)cs2)c(-c2cccnc2)cn1 [Example 14, 1-Ethyl-3-(4-(4-(trifluoromethyl)thiazol-2-yl)-3,3′-bipyridin-6-yl)urea] | 0.39 (≈ 0.153 µg/mL)
